Assay: Inhibition of esterase in male Ostrinia nubilalis (European corn borer) antenna

SMILES	IC50 [µM]
CC/C=C\CCCCCCCCCC(=O)C(F)(F)F [(Z)-10-tridecenyl trifluoromethyl ketone]	7.5
CC/C=C\CCCCCCCCCCC(=O)C(F)(F)F [(Z)-11-tetradecenyl trifluoromethyl ketone]	0.28

Reference: BindingDB's records for doi:10.1021/jf901979k (University of Lleida, 2009)
